What was measured:
Format in all cases: functional
[1] = tested on: T47D; assay: Cytotoxicity against human T47D cells assessed as cell growth at 7.25 uM after 48 hrs by SRB assay; conditions: read-out: Activity
[2] = tested on: SK-MEL-2; assay: Cytotoxicity against human SK-MEL-2 cells assessed as cell growth at 7.25 uM after 48 hrs by SRB assay; conditions: SK-MEL-2, 48 h, read-out: Activity
[3] = Cytotoxicity against human SW620 cells assessed as cell growth at 7.25 uM after 48 hrs by SRB assay; conditions: SW-620, 48 h, read-out: Activity
[4] = tested on: 786-0; assay: Cytotoxicity against human 786-0 cells assessed as cell growth at 7.25 uM after 48 hrs by SRB assay; conditions: 786-0, 48 h, read-out: Activity
[5] = Cytotoxicity against human MOLT4 cells assessed as cell growth at 7.25 uM after 48 hrs by SRB assay; conditions: MOLT-4, 48 h, read-out: Activity
[6] = Cytotoxicity against human HOP92 cells assessed as cell growth at 7.25 uM after 48 hrs by SRB assay; conditions: HOP-92, 48 h, read-out: Activity
[7] = tested on: NCI-H226; assay: Cytotoxicity against human NCI-H226 cells assessed as cell mortality at 7.25 uM after 48 hrs by SRB assay; conditions: NCI-H226, 48 h
[8] = tested on: A498; assay: Cytotoxicity against human A498 cells assessed as cell growth at 7.25 uM after 48 hrs by SRB assay; conditions: A498, 48 h, read-out: Activity
[9] = tested on: Malme-3M; assay: Cytotoxicity against human MALME-3M cells assessed as cell growth at 7.25 uM after 48 hrs by SRB assay; conditions: read-out: Activity
[10] = Cytotoxicity against human HOP62 cells assessed as cell growth at 7.25 uM after 48 hrs by SRB assay; conditions: HOP-62, 48 h, read-out: Activity
[11] = tested on: KM12; assay: Cytotoxicity against human KM12 cells assessed as cell growth at 7.25 uM after 48 hrs by SRB assay; conditions: KM12, 48 h, read-out: Activity
[12] = tested on: A549; assay: Cytotoxicity against human A549 cells assessed as cell growth at 7.25 uM after 48 hrs by SRB assay; conditions: A549, 48 h, read-out: Activity
[13] = tested on: A549; assay: Cytotoxicity against human A549 cells assessed as cell mortality at 7.25 uM after 48 hrs by SRB assay; conditions: A549, 48 h
[14] = Cytotoxicity against human HCC2998 cells assessed as cell growth at 7.25 uM after 48 hrs by SRB assay; conditions: HCC 2998, 48 h, read-out: Activity
[15] = Cytotoxicity against human OVCAR5 cells assessed as cell growth at 7.25 uM after 48 hrs by SRB assay; conditions: OVCAR-5, 48 h, read-out: Activity
[16] = tested on: M14; assay: Cytotoxicity against human M14 cells assessed as cell growth at 10 uM after 48 hrs by SRB assay; conditions: M14, 48 h, read-out: Activity
[17] = Cytotoxicity against human LOXIMVI cells assessed as cell growth at 10 uM after 48 hrs by SRB assay; conditions: LOX IMVI, read-out: Activity
[18] = Cytotoxicity against human HCT15 cells assessed as cell growth at 10 uM after 48 hrs by SRB assay; conditions: HCT-15, 48 h, read-out: Activity
[19] = Cytotoxicity against human IGROV1 cells assessed as cell growth at 10 uM after 48 hrs by SRB assay; conditions: IGROV-1, 48 h, read-out: Activity
[20] = Cytotoxicity against human OVCAR5 cells assessed as cell growth at 10 uM after 48 hrs by SRB assay; conditions: OVCAR-5, 48 h, read-out: Activity
[21] = tested on: NCI-H226; assay: Cytotoxicity against human NCI-H226 cells assessed as cell mortality at 10 uM after 48 hrs by SRB assay; conditions: NCI-H226, 48 h
[22] = tested on: A549; assay: Cytotoxicity against human A549 cells assessed as cell growth at 10 uM after 48 hrs by SRB assay; conditions: A549, 48 h, read-out: Activity
[23] = Cytotoxicity against human SF295 cells assessed as cell growth at 10 uM after 48 hrs by SRB assay; conditions: SF-295, 48 h, read-out: Activity
[24] = Cytotoxicity against human HL-60(TB) cells assessed as cell growth at 10 uM after 48 hrs by SRB assay; conditions: HL-60, 48 h, read-out: Activity
[25] = Cytotoxicity against human Caki1 cells assessed as cell growth at 10 uM after 48 hrs by SRB assay; conditions: CAKI-1, 48 h, read-out: Activity
[26] = Cytotoxicity against human BT549 cells assessed as cell growth at 10 uM after 48 hrs by SRB assay; conditions: BT-549, 48 h, read-out: Activity
[27] = Cytotoxicity against human SF539 cells assessed as cell growth at 10 uM after 48 hrs by SRB assay; conditions: SF-539, 48 h, read-out: Activity
[28] = tested on: MDA-MB-231; assay: Cytotoxicity against human MDA-MB-231 cells assessed as cell growth at 10 uM after 48 hrs by SRB assay; conditions: MDA-MB-231, 48 h, read-out: Activity
[29] = tested on: ACHN; assay: Cytotoxicity against human ACHN cells assessed as cell growth at 10 uM after 48 hrs by SRB assay; conditions: read-out: Activity
[30] = Cytotoxicity against human MOLT4 cells assessed as cell growth at 2.13 uM after 48 hrs by SRB assay; conditions: MOLT-4, 48 h, read-out: Activity
[31] = tested on: U-251; assay: Cytotoxicity against human U251 cells assessed as cell growth at 2.13 uM after 48 hrs by SRB assay; conditions: U-251, 48 h, read-out: Activity
[32] = Cytotoxicity against human DU145 cells assessed as cell growth at 2.13 uM after 48 hrs by SRB assay; conditions: DU-145, 48 h, read-out: Activity
[33] = tested on: SN12C; assay: Cytotoxicity against human SN12C cells assessed as cell growth at 2.13 uM after 48 hrs by SRB assay; conditions: read-out: Activity
[34] = Cytotoxicity against human UO31 cells assessed as cell growth at 2.13 uM after 48 hrs by SRB assay; conditions: UO-31, 48 h, read-out: Activity
[35] = Cytotoxicity against human SNB19 cells assessed as cell growth at 2.13 uM after 48 hrs by SRB assay; conditions: SNB-19, 48 h, read-out: Activity
[36] = Cytotoxicity against human HL-60(TB) cells assessed as cell growth at 2.13 uM after 48 hrs by SRB assay; conditions: HL-60, 48 h, read-out: Activity
[37] = Cytotoxicity against human LOXIMVI cells assessed as cell growth at 2.13 uM after 48 hrs by SRB assay; conditions: LOX IMVI, read-out: Activity
[38] = tested on: SR; assay: Cytotoxicity against human SR cells assessed as cell growth at 2.13 uM after 48 hrs by SRB assay; conditions: read-out: Activity
[39] = tested on: SK-MEL-5; assay: Cytotoxicity against human SK-MEL-5 cells assessed as cell growth at 2.13 uM after 48 hrs by SRB assay; conditions: SK-MEL-5, 48 h, read-out: Activity
[40] = tested on: EKVX; assay: Cytotoxicity against human EKVX cells assessed as cell growth at 2.13 uM after 48 hrs by SRB assay; conditions: read-out: Activity
[41] = Cytotoxicity against human IGROV1 cells assessed as cell growth at 2.13 uM after 48 hrs by SRB assay; conditions: IGROV-1, 48 h, read-out: Activity

With CCCCCCCCCCCCCCCC(=O)NCCCC[C@H](NC(=O)[C@H](C)NC(=O)[C@H](CCCCN)NC(=O)[C@H](C)NC(=O)[C@H](CC(C)C)NC(=O)[C@H](CCCCN)NC(=O)[C@H](C)NC(=O)[C@H](CC(C)C)NC(=O)[C@H](CCCCN)NC(=O)[C@H](CCCCN)NC(=O)[C@H](C)NC(=O)[C@H](CC(C)C)NC(=O)[C@H](CCCCN)NC(=O)[C@H](C)NC(=O)[C@H](CC(C)C)NC(=O)[C@H](CCCCN)NC(=O)[C@@H](N)CC(=O)O)C(N)=O as the compound, how does the growth at 7.25 µM [1] read?
The growth at 7.25 µM was 99%.

And the growth at 7.25 µM [2]?
The growth at 7.25 µM was 93.1%.

And the growth at 7.25 µM [3]?
Its growth at 7.25 µM is 107%.

And the growth at 7.25 µM [4]?
Its growth at 7.25 µM is 107%.

And the growth at 7.25 µM [5]?
Its growth at 7.25 µM is 97.6%.

And the growth at 7.25 µM [6]?
The growth at 7.25 µM was 113%.

What about the mortality at 7.25 µM [7] of the same compound?
Its mortality at 7.25 µM is 0%.

What about the growth at 7.25 µM [8] of the same compound?
The growth at 7.25 µM was 111%.

What about the growth at 7.25 µM [9] of the same compound?
The growth at 7.25 µM was 102%.

What about the growth at 7.25 µM [10] of the same compound?
Its growth at 7.25 µM is 99.8%.

And the growth at 7.25 µM [11]?
The growth at 7.25 µM was 110%.

What about the growth at 7.25 µM [12] of the same compound?
Its growth at 7.25 µM is 67.6%.

And the mortality at 7.25 µM [13]?
Its mortality at 7.25 µM is 32%.

And the growth at 7.25 µM [14]?
The growth at 7.25 µM was 101%.

What about the growth at 7.25 µM [15] of the same compound?
Its growth at 7.25 µM is 105%.

For CC(C)C[C@H](NC(=O)[C@H](CCCCN)NC(=O)[C@H](C)NC(=O)[C@H](CC(C)C)NC(=O)[C@H](CCCCN)NC(=O)[C@H](CCCCN)NC(=O)[C@H](C)NC(=O)[C@H](CC(C)C)NC(=O)[C@H](CCCCN)NC(=O)[C@H](C)NC(=O)[C@H](CC(C)C)NC(=O)[C@H](CCCCN)NC(=O)[C@@H](N)CC(=O)O)C(=O)N[C@@H](C)C(=O)N[C@@H](CCCCN)C(=O)N[C@@H](C)C(=O)N[C@@H](CCCCN)C(N)=O, which growth at 10 µM [16] is on record?
Its growth at 10 µM is 108%.

And the growth at 10 µM [17]?
Its growth at 10 µM is 97.2%.

And the growth at 10 µM [18]?
Its growth at 10 µM is 108%.

And the growth at 10 µM [19]?
Its growth at 10 µM is 107%.

And the growth at 10 µM [20]?
Its growth at 10 µM is 98.6%.

What about the mortality at 10 µM [21] of the same compound?
Its mortality at 10 µM is 1%.

And the growth at 10 µM [22]?
The growth at 10 µM was 81%.

And the growth at 10 µM [23]?
Its growth at 10 µM is 103%.

What about the growth at 10 µM [24] of the same compound?
The growth at 10 µM was 99.5%.

And the growth at 10 µM [25]?
The growth at 10 µM was 99.4%.

What about the growth at 10 µM [26] of the same compound?
Its growth at 10 µM is 105%.

What about the growth at 10 µM [27] of the same compound?
The growth at 10 µM was 98%.

And the growth at 10 µM [28]?
Its growth at 10 µM is 109%.

What about the growth at 10 µM [29] of the same compound?
The growth at 10 µM was 107%.

What does the source list for CCCCCCCCCCCCCCCCNCCO[C@H]1C[C@H](n2cc(C)c(=O)[nH]c2=O)O[C@@H]1C(=O)NCCCC[C@H](NC(=O)[C@H](C)NC(=O)[C@H](CCCCN)NC(=O)[C@H](C)NC(=O)[C@H](CC(C)C)NC(=O)[C@H](CCCCN)NC(=O)[C@H](C)NC(=O)[C@H](CC(C)C)NC(=O)[C@H](CCCCN)NC(=O)[C@H](CCCCN)NC(=O)[C@H](C)NC(=O)[C@H](CC(C)C)NC(=O)[C@H](CCCCN)NC(=O)[C@H](C)NC(=O)[C@H](CC(C)C)NC(=O)[C@H](CCCCN)NC(=O)[C@@H](N)CC(=O)O)C(N)=O?
growth at 2.13 µM [30]: 97.8%; growth at 2.13 µM [31]: 92.7%; growth at 2.13 µM [32]: 109%; growth at 2.13 µM [33]: 103%; growth at 2.13 µM [34]: 81.2%; growth at 2.13 µM [35]: 106%; growth at 2.13 µM [36]: 93.8%; growth at 2.13 µM [37]: 94.6%; growth at 2.13 µM [38]: 96.6%; growth at 2.13 µM [39]: 105%; growth at 2.13 µM [40]: 103%; growth at 2.13 µM [41]: 107%

From ChEMBL document CHEMBL3822390, “Synthesis, characterization and anti-cancer activity of a peptide nucleolipid bioconjugate” (2016)
